# In PMC8151276, “An Integrated Approach toward NanoBRET Tracers for Analysis of GPCR Ligand Engagement” (Molecules, 2021):
# What was measured:
# VIPR1 = biological target: T1, VIPR1 (Homo sapiens, UniProt P32241); experiment: NanoBRET screen HiBiT-VIPR1 in HEK293; type: binding
# T1 construct: purchased Promega (in-house HiBiT-GPCR construct library, NanoBRET)
# T1 sequence (P32241 31-457): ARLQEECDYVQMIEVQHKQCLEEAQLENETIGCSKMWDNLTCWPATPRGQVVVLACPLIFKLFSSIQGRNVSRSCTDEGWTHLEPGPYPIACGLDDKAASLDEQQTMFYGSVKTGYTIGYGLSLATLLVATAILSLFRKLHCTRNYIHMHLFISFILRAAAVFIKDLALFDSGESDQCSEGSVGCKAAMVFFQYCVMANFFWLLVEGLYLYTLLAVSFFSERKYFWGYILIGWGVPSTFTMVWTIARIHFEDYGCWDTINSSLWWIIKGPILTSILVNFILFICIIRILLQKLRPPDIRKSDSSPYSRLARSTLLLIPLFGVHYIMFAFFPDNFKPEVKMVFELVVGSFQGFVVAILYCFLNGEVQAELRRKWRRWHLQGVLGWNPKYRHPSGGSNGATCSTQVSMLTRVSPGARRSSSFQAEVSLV
# Method: (§1) Each tracer candidate was screened across the entire library of HiBiT-GPCR constructs using NanoBRET as the detection modality. As depicted in Figure 4A, the specificity of interactions was evaluated through decrease in BRET due to competitive displacement of a bound tracer by excess parental compound. Each tracer was analyzed for binding to each HiBiT-GPCR fusion in the absence and in the presence of competing parental compound. Briefly, HEK293 cells were transfected with HiBiT-GPCR constructs diluted into promoterless DNA to reduce expression and maximize translocation to the cell surface. Each tracer candidate was then screened at concentrations of 1 μM and 0.1 μM across cells expressing these fusions. Cells were treated for 1.5 h with tracer either alone or in the presence of 20 μM competing parental compound (i.e., control). BRET was measured upon addition of purified LgBiT and subsequent complementation with HiBiT genetically fused to a GPCR. The specificity of interactions was assessed through a decrease in BRET signal due to competitive displacement of the bound tracer. To further gauge the robustness of these interactions, the fold response over the control (i.e., BRETtracer/BRETcontrol) was calculated. We chose a 1.5-fold response, which translates to ≥7-fold signal over noise as the minimal threshold required to score an interaction as positive. […]. Below we highlight the screening results obtained for our exemplary fluorescent tracers based on Clozapine, Amitriptyline and AZD1283.
# (§2) HiBiT-GPCR DNA constructs were diluted in 10 mM Tris pH 8 to a final concentration of 0.01 μg/μL, arrayed in 96-well plates and stored at −20 °C. For transfection, HEK293 cells were suspended in Opti-MEM (without phenol red) supplemented with 2% fetal bovine serum (Seradigm) and 100 units/mL penicillin–streptomycin (Gibco) at a final concentration of 220,000 cells/mL and dispensed into white 96-well plates at 90 μL/well. Subsequent transfections and screens were carried using an Agilent Bravo Automated Liquid Handling Platform. First, the 96-well HiBiT DNA arrays were diluted 25-fold in Opti-MEM (without serum or phenol red) to a final concentration of 0.0004 μg/μL and 20 μL of the diluted DNAs were transferred into new 96-well plates. Next, promoterless carrier DNA (1 μg/μL) was diluted 25-fold (0.04 μg/μL) and then dispensed into the diluted arrays at 20 μL/well. Following brief mixing, Viafect transfection reagent (Promega) diluted 16-fold into Opti-MEM was dispensed into the plates at 40 μL/well. After mixing by pipetting, plates were incubated for 10 min on the pipetting station deck. The DNA-transfection reagent complexes were then added to plates containing cells. To facilitate the screen, 10 μL of DNA-transfection reagent complexes were added in duplicates to the top 4 and bottom 4 rows, resulting in two identical 48-well arrays per plate. Plates with transfected cells were incubated for 18–20 h at 37 °C/5% CO2. A screen of each tracer across the entire library using two different concentrations requires duplicate plates of transfected cells. Depending on the number of tracers being screened, transfections can be scaled up using the same ratios. The next day, for each tracer, four 20× screening solutions in tracer dilution buffer (Promega) were prepared: two duplicates at final concentration of 20 μM and two duplicates at a final concentration of 2 μM. A competing unmodified compound was added to one of each duplicate at a final concentration of 400 μM. The four resulting solutions were diluted 4-fold in Opti-MEM without serum or phenol red to generate 5× solutions (5 µM and 0.5 µM tracer +/− 100 μM competing compound). To screen the library, a BioTek MultiFlo FX liquid dispenser was used to dispense 22.5 µL of tracer solution to the top 4 rows and 22.5 µL tracer + competing compound solution to the 4 bottom rows. Plates were briefly mixed on an orbital shaker and incubated for 1.5 h at room temperature. […]
# FPR2 = biological target: T2, FPR2 (Homo sapiens, UniProt P25090); experiment: NanoBRET screen HiBiT-FPR2 in HEK293; type: binding
# T2 construct: purchased Promega (in-house HiBiT-GPCR construct library, NanoBRET)
# T2 sequence (P25090 1-351): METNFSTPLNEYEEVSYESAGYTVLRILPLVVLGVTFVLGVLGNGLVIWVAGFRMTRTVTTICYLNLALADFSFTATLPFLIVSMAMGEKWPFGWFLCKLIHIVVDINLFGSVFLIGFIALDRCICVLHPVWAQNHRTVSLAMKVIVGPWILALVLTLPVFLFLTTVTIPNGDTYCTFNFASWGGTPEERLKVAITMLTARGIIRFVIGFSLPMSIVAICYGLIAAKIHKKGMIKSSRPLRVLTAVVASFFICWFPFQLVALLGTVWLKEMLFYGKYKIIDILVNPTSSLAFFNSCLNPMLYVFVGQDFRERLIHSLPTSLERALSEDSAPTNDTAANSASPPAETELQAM
# Method: as §1, §2
# [1] = tracer at 0.1μM, listed as amitriptyline-b-2-NB590
SMILES,"NanoBRET Fold Response (VIPR1; VIPR1, tracer 0.1μM)","NanoBRET Fold Response (VIPR1; VIPR1, tracer 1μM)","NanoBRET Fold Response (FPR2; FPR2, tracer 0.1μM)","NanoBRET Fold Response (FPR2; FPR2, tracer 1μM)",other results
COc1ccc2c(n1)c(CCNC(C)=O)cn2CCNC(=O)CCc1ccc2n1[B-](F)(F)[N+]1=C(c3ccc[nH]3)C=CC1=C2 [Azamelatonin-1-NB590],–,–,–,–,NanoBRET Fold Response (VIPR1; 0.1μM tracer): 0.99; NanoBRET Fold Response (VIPR1; 1μM tracer): 1.21; NanoBRET Fold Response (FPR2; 0.1μM tracer): 0.96; NanoBRET Fold Response (FPR2; 1μM tracer): 1.50
CC(C)N(CC[C@H](c1ccccc1)c1cc(CCNC(=O)c2ccc(CNC(=O)CCc3ccc4n3[B-](F)(F)[N+]3=C(c5ccc[nH]5)C=CC3=C4)cc2)ccc1O)C(C)C [Tolterodine-BZ-NB590],0.97,0.98,0.95,0.95,–
O=C(CCc1ccc2n1[B-](F)(F)[N+]1=C(c3ccc[nH]3)C=CC1=C2)NCCOCCOCCNC(=O)OCCOCCN1CCN(C2=Nc3ccccc3Sc3ccccc32)CC1 [Quetiapine-a-2-NB590],1.03,0.92,1.06,0.82,–
Cc1cc2c(s1)Nc1ccccc1N=C2N1CCN(CCCNC(=O)CCOCCOCCOCCOCCNC(=O)CCc2ccc3n2[B-](F)(F)[N+]2=C(c4ccc[nH]4)C=CC2=C3)CC1 [Olanzapine-a-2-NB590],1.06,1.04,0.70,0.80,–
O=C(CCc1ccc2n1[B-](F)(F)[N+]1=C(c3ccc[nH]3)C=CC1=C2)NCc1ccc(C(=O)NCCOCCOCCNCC(O)COc2cccc3ccccc23)cc1 (stereo not drawn) [Propranolol-3-NB590],–,–,–,–,"NanoBRET Fold Response (VIPR1; VIPR1, 0.1μM): 1.03; NanoBRET Fold Response (VIPR1; VIPR1, 1μM): 1.04; NanoBRET Fold Response (FPR2; FPR2, 0.1μM): 1.02; NanoBRET Fold Response (FPR2; FPR2, 1μM): 1.12"
CN1CCN(C2=Nc3cc(Cl)ccc3N(CC(=O)NCCOCCOCCOCCOCCNC(=O)CCc3ccc4n3[B-](F)(F)[N+]3=C(c5ccc[nH]5)C=CC3=C4)c3ccccc32)CC1 [Clozapine-c-2-NB590],–,–,–,–,"NanoBRET Fold Response (VIPR1; VIPR1, 0.1μM tracer): 0.98; NanoBRET Fold Response (VIPR1; VIPR1, 1μM tracer): 1.00; NanoBRET Fold Response (FPR2; FPR2, 0.1μM tracer): 1.00; NanoBRET Fold Response (FPR2; FPR2, 1μM tracer): 0.89"
O=C(CCc1ccc2n1[B-](F)(F)[N+]1=C(c3ccc[nH]3)C=CC1=C2)NCc1ccc(C(=O)NCCOCCC(=O)N[C@@H]2CC[C@@]3(O)[C@H]4Cc5ccc(O)c6c5[C@@]3(CCN4CC3CC3)[C@H]2O6)cc1 [Naltrexone-3-NB590],0.95,1.36,0.87,0.66,–
CC(C)N(CC[C@H](c1ccccc1)c1cc(CCNC(=O)CCOCCOCCOCCOCCNC(=O)CCc2ccc3n2[B-](F)(F)[N+]2=C(c4ccc[nH]4)C=CC2=C3)ccc1O)C(C)C [Tolterodine-2-NB590],0.99,0.78,1.07,0.71,–
Cc1nc2n(c(=O)c1CCN1CCC(c3noc4cc(F)ccc34)CC1)CCCC2OC(=O)NCCOCCOCCOCCOCCNC(=O)CCc1ccc2n1[B-](F)(F)[N+]1=C(c3ccc[nH]3)C=CC1=C2 (stereo not drawn) [Risperidone-2-NB590],0.98,1.10,0.94,0.95,–
O=C(CCOCCOCCOCCOCCNC(=O)CCc1ccc2n1[B-](F)(F)[N+]1=C(c3ccc[nH]3)C=CC1=C2)NCCCN1CCN(C2=Nc3cc(Cl)ccc3Nc3ccccc32)CC1 [Clozapine-a-2-NB590],–,–,–,–,"NanoBRET Fold Response (VIPR1; VIPR1, 0.1μM tracer): 0.98; NanoBRET Fold Response (VIPR1; VIPR1, 1μM tracer): 1.10; NanoBRET Fold Response (FPR2; FPR2, 0.1μM tracer): 0.91; NanoBRET Fold Response (FPR2; FPR2, 1μM tracer): 1.34"
COc1ccc2[nH]c(-c3ccc(CNC(=O)CCOCCOCCOCCOCCNC(=O)CCc4ccc5n4[B-](F)(F)[N+]4=C(c6ccc[nH]6)C=CC4=C5)cc3)c(CCNC(C)=O)c2n1 [AzomelatoninICO9-2-NB590],–,–,–,–,NanoBRET Fold Response (VIPR1; 0.1μM tracer): 0.89; NanoBRET Fold Response (VIPR1; 1μM tracer): 0.81; NanoBRET Fold Response (FPR2; 0.1μM tracer): 0.74; NanoBRET Fold Response (FPR2; 1μM tracer): 1.09
CN1CCN(C2=Nc3cc(Cl)ccc3Nc3ccc(CNC(=O)CCOCCOCCOCCOCCNC(=O)CCc4ccc5n4[B-](F)(F)[N+]4=C(c6ccc[nH]6)C=CC4=C5)cc32)CC1 [Clozapine-b-2-NB590],–,–,–,–,"NanoBRET Fold Response (VIPR1; VIPR1, 0.1μM tracer): 1.12; NanoBRET Fold Response (VIPR1; VIPR1, 1μM tracer): 0.99; NanoBRET Fold Response (FPR2; FPR2, 0.1μM tracer): 0.78"
COc1ccccc1N1CCN(CCCCN2C(=O)c3ccc(CNC(=O)CCOCCNC(=O)c4ccc(CNC(=O)CCc5ccc6n5[B-](F)(F)[N+]5=C(c7ccc[nH]7)C=CC5=C6)cc4)cc3C2=O)CC1 [NAN-190-3-NB590],0.71,1.05,1.35,0.77,–
N#CN=C(NCCCOc1cccc(CN2CCCCC2)c1)NCCNC(=O)CCOCCOCCOCCOCCNC(=O)CCc1ccc2n1[B-](F)(F)[N+]1=C(c3ccc[nH]3)C=CC1=C2 [Aminopotentidine-2-NB590],1.02,1.00,0.95,1.10,–
CN(C)CCC=C1c2ccccc2CCc2ccc(C(=O)NCCNC(=O)CCOCCOCCOCCOCCNC(=O)CCc3ccc4n3[B-](F)(F)[N+]3=C(c5ccc[nH]5)C=CC3=C4)cc21 [Amitriptyline-b-2-NB590],–,–,–,–,NanoBRET Fold Response (VIPR1; [1]): 0.98; NanoBRET Fold Response (VIPR1; tracer at 1μM): 0.96; NanoBRET Fold Response (FPR2; [1]): 0.88; NanoBRET Fold Response (FPR2; tracer at 1μM): 0.99
CN(CCC=C1c2ccccc2CCc2ccccc21)C(=O)CCOCCOCCOCCOCCNC(=O)CCc1ccc2n1[B-](F)(F)[N+]1=C(c3ccc[nH]3)C=CC1=C2 [Amitriptyline-e-2-NB590],–,–,–,–,NanoBRET Fold Response (VIPR1; tracer at 1μM): 1.06
